{"source": "patent EP1169336B1", "about": "“ENT-STEROIDS AS SELECTIVELY ACTIVE ESTROGENS” (Schering Aktiengesellschaft, priority 1999, dated 2000)", "key": {"hERβ [1]": {"system": "hERβ", "details": "cited from earlier work"}, "hERβ [2]": {"system": "hERβ", "format": "binding, human", "details": "for ERβ/ ER: quotient of RBA to hERβ and hER"}, "Rat prost. ER": {"system": "Rat prost. ER", "assay": "Estrogen receptor binding study, competition with 3H-estradiol, rat prostate cytosol"}, "[3]": {"details": "enantio form; J. Med. Chem. 10, 199-204 1967; cited from earlier work"}, "[4]": {"details": "reported, source not given; cited from earlier work"}, "[5]": {"target": "human estrogen receptor α (ERα) (Homo sapiens, UniProt P03372)", "sequence (P03372 whole entry)": "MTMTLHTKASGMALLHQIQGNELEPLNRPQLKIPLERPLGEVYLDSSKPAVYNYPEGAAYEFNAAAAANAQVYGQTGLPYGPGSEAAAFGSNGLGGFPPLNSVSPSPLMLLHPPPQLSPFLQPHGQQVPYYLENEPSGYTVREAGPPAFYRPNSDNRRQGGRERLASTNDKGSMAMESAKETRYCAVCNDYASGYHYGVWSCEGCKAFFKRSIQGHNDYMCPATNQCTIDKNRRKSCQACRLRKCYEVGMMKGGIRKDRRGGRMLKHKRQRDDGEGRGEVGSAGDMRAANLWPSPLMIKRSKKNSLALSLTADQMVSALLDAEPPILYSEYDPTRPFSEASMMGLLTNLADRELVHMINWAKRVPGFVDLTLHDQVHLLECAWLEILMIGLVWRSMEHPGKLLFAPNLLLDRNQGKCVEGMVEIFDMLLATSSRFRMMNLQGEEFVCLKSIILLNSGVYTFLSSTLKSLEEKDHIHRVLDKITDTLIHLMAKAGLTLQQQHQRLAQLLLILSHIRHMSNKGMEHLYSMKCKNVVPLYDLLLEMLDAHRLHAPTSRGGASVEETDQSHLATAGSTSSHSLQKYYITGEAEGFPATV", "details": "cited from earlier work"}, "Rat uterus ER": {"system": "Rat uterus ER", "assay": "Estrogen receptor binding study, competition with 3H-estradiol, rat uterus cytosol", "details": "3H-estradiol as ligand, estradiol = 100"}, "[6]": {"details": "Endocrinology 63, 464 (1958); cited from earlier work"}}, "note": "Read-outs that look alike come from different tables or passages of the source.", "data": [{"smiles": "C[C@]12CC[C@@H]3c4ccc(O)cc4CC[C@H]3[C@@H]1C[C@@H](O)[C@@H]2O", "note": "[Estriol]", "values": [{"measurement": "hERβ RBA*", "setting": "hERβ [1]; relative binding affinity, estradiol = 100", "result": 21}, {"measurement": "ERβ/ ER", "setting": "hERβ [2]", "result": 1.5}]}, {"smiles": "C[C@]12CC[C@@H]3c4ccc(O)cc4CC[C@H]3[C@@H]1C[C@@H](O)C2=O", "note": "[16α-hydroxyestrone]", "values": [{"measurement": "RBA value on the rat prostate estrogen receptor compared with the RBA value on the rat uterus estrogen receptor", "setting": "Rat prost. ER; some studies", "result": "five times better"}, {"measurement": "binding to the human estrogen receptor β (ERβ) compared with the human estrogen receptor α (ERα)", "setting": "hERβ [2]; some studies", "result": "three times better"}]}, {"smiles": "C#C[C@@]1(O)CC[C@@H]2[C@H]3CCc4cc(O)ccc4[C@@H]3CC[C@]21C", "note": "[17α-Ethinylestradiol]", "values": [{"measurement": "estrogeneity, relative to estrone", "setting": "[3]", "result": "less than 5%"}]}, {"smiles": "C[C@@]12CC[C@H]3c4ccc(O)cc4CC[C@H]3[C@H]1CC[C@H]2O", "note": "(single isomer, unassigned) [ent-8α-estradiol]", "values": [{"measurement": "antilipemic activity", "setting": "[4]", "result": "antilipemic activity in the case of no feminization"}]}, {"smiles": "O=c1c(-c2ccc(O)cc2)coc2cc(O)cc(O)c12", "note": "[Geni-steine, Genisteine]", "values": [{"measurement": "ERβ/ ER", "setting": "hERβ [2]", "result": 7}]}, {"smiles": "C[C@]12CC[C@H]3[C@@H](CC=C4C[C@@H](O)CC[C@@]43C)[C@@H]1CC[C@@H]2O", "note": "[5-Andro-stene-diol, 5-Androstenediol]", "values": [{"measurement": "Rat prost. ER(RBA)", "setting": "Rat prost. ER; 3H-estradiol as ligand, prostate cytosol, estradiol = 100", "result": 5}, {"measurement": "prost. ER/uterus ER", "setting": "Rat prost. ER; ratio of binding to prostate and uterus receptor", "result": 50}, {"measurement": "hERβ RBA*", "setting": "hERβ [1]", "result": 17}, {"measurement": "hER RBA*", "setting": "[5]", "result": 6}, {"measurement": "Rat uterus ER(RBA)", "setting": "Rat uterus ER", "result": 0.1}, {"measurement": "ERβ/ ER", "setting": "hERβ [2]", "result": 3}]}, {"smiles": "CC[C@@]12CC[C@@H]3[C@H](CCC4=CC(=O)CC[C@H]43)[C@H]1CC[C@]2(O)C#CCl", "note": "(single isomer, unassigned) [ent-17α-chloroethinyl-17β-hydroxy-18a-homo-estr-4-en-3-one]", "values": [{"measurement": "Clauberg Test", "setting": "[6]", "result": "ineffective"}]}]}
